# Assay results reported in patent US6660755B2, “Substituted diaryl or diheteroaryl methans, ethers and amines having retinoid agonist, antagonist or inverse agonist type biological activity” (Allergan, Inc., priority 1997, dated 2003).
# What was measured:
# [1] = target: T1, RARγ (Homo sapiens, UniProt P13631); assay: Ligand binding assay, RARγ
# T1 sequence (P13631 1-454): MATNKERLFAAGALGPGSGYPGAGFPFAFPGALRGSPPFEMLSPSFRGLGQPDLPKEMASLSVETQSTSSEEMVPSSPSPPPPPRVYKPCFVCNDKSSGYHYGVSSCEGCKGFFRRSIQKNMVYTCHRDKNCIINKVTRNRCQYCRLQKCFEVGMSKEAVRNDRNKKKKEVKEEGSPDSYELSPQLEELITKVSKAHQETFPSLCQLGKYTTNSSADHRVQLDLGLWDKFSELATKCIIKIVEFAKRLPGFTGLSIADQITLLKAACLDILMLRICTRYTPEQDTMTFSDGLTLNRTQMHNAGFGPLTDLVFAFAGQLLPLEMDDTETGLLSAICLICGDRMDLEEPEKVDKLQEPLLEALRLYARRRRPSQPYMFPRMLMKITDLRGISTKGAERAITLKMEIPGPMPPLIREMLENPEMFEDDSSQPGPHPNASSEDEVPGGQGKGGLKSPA
# From the text: (§1) A holoreceptor transactivation assay and a ligand binding assay which measure the antagonist/agonist like activity of the compounds of the invention, or their ability to bind to the several retinoid receptor subtypes, respectively, are described in published PCT Application No. WO WO93/11755 (particularly on pages 30-33 and 37-41) published on Jun. 24, 1993, the specification of which is also incorporated herein by reference. A detailed experimental procedure for holoreceptor transactivations has been described by Heyman et al. Cell 1992, 68, 397-406; Allegretto et al. J. Biol. Chem. 1993 268, 26625-26633, and Mangelsdorf et al. The Retinoids: Biology, Chemistry and Medicine, pp 319-349, Raven Press Ltd., New York, which are expressly incorporated herein by reference. The results obtained in this assay are expressed in EC50 numbers, as they are also in the chimeric receptor transactivation assay. The results of ligand binding assay are expressed in Kd numbers. (See Cheng et al. Biochemical Pharmacology 22, 3099-3108, expressly incorporated herein by reference.) Still another transactivation assay, the “PGR assay” is described in the publication Klein et al. J. Biol. Chem. 1996, 271, 22692-22696, which is expressly incorporated herein by reference, and a detailed description is also provided below. The results of the PGR assay are also expressed in EC50 numbers (nanomolar concentration).
# [2] = target: T2, RARα (Homo sapiens, UniProt P10276); assay: Ligand binding assay, RARα
# T2 sequence (P10276 1-462): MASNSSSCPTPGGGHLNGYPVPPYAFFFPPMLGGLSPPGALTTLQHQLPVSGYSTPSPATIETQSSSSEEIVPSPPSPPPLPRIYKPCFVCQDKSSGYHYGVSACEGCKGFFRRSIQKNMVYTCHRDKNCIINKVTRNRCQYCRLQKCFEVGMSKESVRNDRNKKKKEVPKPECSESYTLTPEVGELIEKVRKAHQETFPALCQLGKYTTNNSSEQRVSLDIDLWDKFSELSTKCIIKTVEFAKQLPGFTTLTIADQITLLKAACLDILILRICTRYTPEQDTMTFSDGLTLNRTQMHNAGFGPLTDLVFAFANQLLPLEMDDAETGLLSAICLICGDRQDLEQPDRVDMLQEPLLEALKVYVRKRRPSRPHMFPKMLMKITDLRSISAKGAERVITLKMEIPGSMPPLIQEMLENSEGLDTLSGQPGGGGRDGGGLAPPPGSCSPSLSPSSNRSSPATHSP
# From the text: as §1
# [3] = target: RARα (Homo sapiens, UniProt P10276, E106G/G107S/G110V); assay: PGR assay (RAR-P-GR holoreceptor transactivation), RARα; type: cell-based; details: for EC50: PGR assay (transactivation), CV-1 cells, luciferase reporter; for Emax: 18 h
# From the text: as §1
# RAR-P-GR holoreceptor Transactivation Assay
# CV-1 cells (4×10^5 cells/well) were transiently transfected with the luciferase reporter plasmid MTV-4(R5G)-Luc (0.7 μg/well) containing four copies of the R5G retinoid DNA response element along with the RXRα expression plasmid pRS-hRXRa (0.1 μg/well) and one of the RAR-P-GR expression plasmids (0.05 μg/well) in 12 well plates via calcium phosphate precipitation Chen et al. Mol. Cell. Biol. 1987, 7, 2745-2752 as described by Klein et al. J. Biol. Chem. 1996, 271, 22692, referenced above. The three different RAR-P-GR expression plasmids, pRS-RARα-P-GR, pcDNA3-RARβ-P-GR and pcDNA3-RARγ-P-GR, express RARα, RARβ and RARγ receptors, respectively, which contain modified DNA binding domains such that their “P-boxes” have been altered to that of the glucocorticoid receptor. These RAR-P-GR receptors bind to DNA as heterodimeric complexes with RXR. Specifically, the RAR-P-GR receptors bind retinoic acid response elements designated R5G, comprised of two RAR half sites (nucleotide sequence 5′-GGTTCA-3′) separated by 5 base pairs in which the 3′-half site has been modified to that of a glucocorticoid receptor half site, 5′-AGAACA-3′. To allow for various in transfection efficiency a β-galactosidase expression plasmid (0.01 μg/well) was used as an internal control. Alternatively, the assay was performed in a 96-well microtiter plate format (5000 cells/well) in a manner which was identical to that described above except ⅕ of the amount of the DNA-calcium phosphate precipitant (20 μl instead of 100 Al) was applied to each well. Eighteen hours after introduction of the DNA precipitants, cells were rinsed with phosphate buffered saline (PBS) and fed with D-MEM (Gibco-BRL) containing 10% activated charcoal extracted fetal bovine serum (Gemini Bio-Products). After rinsing with PBS cells were lysed with luciferase activity was measured as previously described in de Wet Mol. Cell. Biol. 1987, 7, 725-737. Luciferase values represent the mean±SEM of triplicate determinations normalized to β-galactosidase activity. The results of the PGR assay are also expressed in EC50 numbers (nanomolar concentration).
# [4] = efficiency relative to all-trans-retinoic acid, PGR assay
# Chain of RARα (Homo sapiens, UniProt P10276, E106G/G107S/G110V) (P10276 whole entry E106G/G107S/G110V): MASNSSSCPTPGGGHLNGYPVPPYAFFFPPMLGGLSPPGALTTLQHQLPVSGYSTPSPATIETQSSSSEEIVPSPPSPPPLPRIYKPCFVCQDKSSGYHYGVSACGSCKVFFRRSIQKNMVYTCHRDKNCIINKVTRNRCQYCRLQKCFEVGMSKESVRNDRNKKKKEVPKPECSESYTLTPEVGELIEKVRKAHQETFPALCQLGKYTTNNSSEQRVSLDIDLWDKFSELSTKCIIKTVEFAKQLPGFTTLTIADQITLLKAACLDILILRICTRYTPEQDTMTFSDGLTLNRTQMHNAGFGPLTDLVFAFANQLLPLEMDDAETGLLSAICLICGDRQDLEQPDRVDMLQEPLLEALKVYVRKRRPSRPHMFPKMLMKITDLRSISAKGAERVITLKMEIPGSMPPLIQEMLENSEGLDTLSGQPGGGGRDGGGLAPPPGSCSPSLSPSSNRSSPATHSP
# Chain of RARα (Homo sapiens, UniProt P10276, E106G/G107S/G110V) (P19793 whole entry, further chain): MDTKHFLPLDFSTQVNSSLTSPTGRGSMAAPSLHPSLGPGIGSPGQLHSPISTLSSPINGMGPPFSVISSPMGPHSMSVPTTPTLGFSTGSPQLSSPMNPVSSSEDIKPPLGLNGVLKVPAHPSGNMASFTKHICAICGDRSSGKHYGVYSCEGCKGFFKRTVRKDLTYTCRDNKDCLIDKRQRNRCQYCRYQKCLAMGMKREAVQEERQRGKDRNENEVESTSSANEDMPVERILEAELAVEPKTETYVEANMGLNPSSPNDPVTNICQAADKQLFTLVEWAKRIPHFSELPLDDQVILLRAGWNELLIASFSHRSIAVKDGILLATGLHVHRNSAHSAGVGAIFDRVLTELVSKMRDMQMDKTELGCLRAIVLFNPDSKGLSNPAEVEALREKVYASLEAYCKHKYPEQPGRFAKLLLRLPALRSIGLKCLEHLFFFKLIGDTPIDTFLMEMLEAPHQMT
Kd [1],Kd [2],EC50 [3],"% Efficiency RARα [3, 4]","Emax [3, 4]",Compound
0.317 µM,1.05 µM,> 10 µM,0%,–,"CC(C)(C)c1ccc(C#Cc2ccc(C(=O)O)cn2)cc1Oc1ccc(C(F)(F)F)cc1 [Compound 6, 6-[[4′-tert-Butyl-3′-(4″-trifluomethyl)phenoxy]phenylethynyl]-3-nicotinic Acid]"
0.066 µM,0.015 µM,> 10 µM,–,0%,"COC(=O)c1ccc(Oc2cc(C#Cc3ccc(C(=O)O)c(F)c3)ccc2C(C)(C)C)cc1 [Compound 10, 4-[[4′-tert-Butyl-3′-(4″-carbomethoxy)phenoxy]phenylethynyl]-2-fluorobenzoic Acid]"
0.112 µM,0.024 µM,> 10 µM,–,0%,"CC(C)(C)c1ccc(C#Cc2ccc(C(=O)O)c(F)c2)cc1Oc1ccc([N+](=O)[O-])cc1 [Compound 11, 4-[[4′-tert-Butyl-3′-(4″-nitro)phenoxy]phenylethynyl]-2-fluoro-benzoic Acid]"
5.69 µM,0.011 µM,> 10 µM,–,0%,"CC(C)(C)c1ccc(C(=O)Nc2ccc(C(=O)O)c(F)c2)cc1Oc1ccc(C(F)(F)F)cc1 [Compound 13, 4-[[4′-tert-Butyl-3′-(4″-trifluoromethyl)phenoxy]benzoylamino]-2-fluorobenzoic Acid]"
